# Test results published in US7135462B2, “Hepatitis C virus inhibitors” (priority 2003, dated 2006).
# Read-outs that look alike come from different tables or passages of the source.
# What was measured:
# [1] = target: T1, HCV NS3/4A protease complex (BMS strain) (UniProt P27958, C1454S/C1711G, species not given); assay: Recombinant HCV NS3/4A protease complex FRET peptide assay; type: biochemical, Hepatitis C virus (HCV), genotype 1a; details: NS3/4A BMS strain, activity range class
# T1 construct: for H77 and J4L6S; fused on or other part: Three-lysine solubilising tail at the C-terminus of NS4A
# Description: Recombinant HCV NS3/4A Protease Complex FRET Peptide Assay
# Serum from an HCV-infected patient was obtained from Dr. T. Wright, San Francisco Hospital. An engineered full-length cDNA (compliment deoxyribonucleic acid) template of the HCV genome (BMS strain) was constructed from DNA fragments obtained by reverse transcription-PCR (RT-PCR) of serum RNA (ribonucleic acid) and using primers selected on the basis of homology between other genotype 1a strains.
# The H77 and J4L6S strains were used for production of recombinant NS3/4A protease complexes. […] Briefly, a three-lysine solubilizing tail was added at the 3′-end of the NS4A coding region. […] Briefly, the NS3/4A protease complex expression was induced with 0.5 millimolar (mM) Isopropyl β-D-1-thiogalactopyranoside (IPTG) for 22 hours (h) at 20° C. […] The cells were resuspended in lysis buffer (10 mL/g) consisting of 25 mM N-(2-Hydroxyethyl)piperazine-N′-(2-Ethane Sulfonic acid) (HEPES), pH 7.5, 20% glycerol, 500 mM Sodium Chloride (NaCl), 0.5% Triton X-100, 1 microgram/milliliter (“μg/mL”) lysozyme, 5 mM Magnesium Chloride (MgCl2), 1 μg/ml DnaseI, 5 mM β-Mercaptoethanol (βME), Protease inhibitor—Ethylenediamine Tetraacetic acid (EDTA) free (Roche), homogenized and incubated for 20 minutes (min) at 4° C. The homogenate was sonicated and clarified by ultra-centrifugation at 235000 g for 1 h at 4° C. Imidazole was added to the supernatant to a final concentration of 15 mM and the pH adjusted to 8.0. The crude protein extract was loaded on a Nickel—Nitrilotriacetic acid (Ni-NTA) column pre-equilibrated with buffer B (25 mM HEPES, pH 8.0, 20% glycerol, 500 mM NaCl, 0.5% Triton X-100, 15 mM imidazole, 5 mM βME). The sample was loaded at a flow rate of 1 mL/min. The column was washed with 15 column volumes of buffer C (same as buffer B except with 0.2% Triton X-100). The protein was eluted with 5 column volumes of buffer D (same as buffer C except with 200 mM Imidazole).
# NS3/4A protease complex-containing fractions were pooled and loaded on a desalting column Superdex-S200 pre-equilibrated with buffer D (25 mM HEPES, pH 7.5, 20% glycerol, 300 mM NaCl, 0.2% Triton X-100, 10 mM βME). Sample was loaded at a flow rate of 1 mL/min. NS3/4A protease complex-containing fractions were pooled and concentrated to approximately 0.5 mg/ml.
# The enzyme was stored at −80° C., thawed on ice and diluted prior to use in assay buffer. […] The sequence of this peptide is loosely based on the NS4A/NS4B natural cleavage site for the HCV NS3 protease except there is an ester linkage rather than an amide bond at the cleavage site. The peptide substrate was incubated with one of the three recombinant NS3/4A protease complexes, in the absence or presence of a compound of the present invention, and the formation of fluorescent reaction product was followed in real time using a Cytofluor Series 4000.
# The reagents were as follow: HEPES and Glycerol (Ultrapure) were obtained from GIBCO-BRL. Dimethyl Sulfoxide (DMSO) was obtained from Sigma. β-Mercaptoethanol was obtained from Bio Rad.
# Assay buffer: 50 mM HEPES, pH 7.5; 0.15 M NaCl; 0.1% Triton; 15% Glycerol; 10 mM βME. Substrate: 2 μM final concentration (from a 2 mM stock solution in DMSO stored at −20° C.). HCV NS3/4A protease type 1a (1b), 2–3 nM final concentration (from a 5 μM stock solution in 25 mM HEPES, pH 7.5, 20% glycerol, 300 mM NaCl, 0.2% Triton-X100, 10 mM βME).
# The assay was performed in a 96-well polystyrene black plate from Falcon.
# [2] = tested on: HCV replicon in Huh7 cells; assay: microbe, parasite or virus in culture; type: cell-based, strain 1b; details: Hepatitis C virus, Huh-7, 96 h; Huh7 cells expressing HCV replicon, 4 days; activity range class
# Description: Generation of HCV Replicon
# This system enabled us to evaluate the effects of our HCV Protease compounds on HCV RNA replication. Briefly, using the HCV strain 1b sequence described in the Lohmann paper (Assession number: AJ238799), an HCV cDNA was generated encoding the 5′ internal ribosome entry site (IRES), the neomycin resistance gene, the EMCV (encephalomyocarditis viurs)-IRES and the HCV nonstructural proteins, NS3-NS5B, and 3′ non-translated region (NTR). In vitro transcripts of the cDNA were transfected into the human hepatoma cell line, Huh7. […] Resulting cell lines were characterized for positive and negative strand RNA production and protein production over time.
# Huh7 cells, constitutively expressing the HCV replicon, were grown in Dulbecco's Modified Eagle Media (DMEM) containing 10% Fetal calf serum (FCS) and 1 mg/ml G418 (Gibco-BRL). Cells were seeded the night before (1.5×10^4 cells/well) in 96-well tissue-culture sterile plates. Compound and no compound controls were prepared in DMEM containing 4% FCS, 1:100 Penicillin/Streptomysin, 1:100 L-glutamine and 5% DMSO in the dilution plate (0.5% DMSO final concentration in the assay). Compound/DMSO mixes were added to the cells and incubated for 4 days at 37° C. After 4 days, plates were rinsed thoroughly with Phosphate-Buffered Saline (PBS) (3 times 150 μl). The cells were lysed with 25 μl of a lysis assay reagent containing the FRET peptide (RET S1, as described for the in vitro enzyme assay). The lysis assay reagent was made from 5× cell Luciferase cell culture lysis reagent (Promega #E153A) diluted to 1× with distilled water, NaCl added to 150 mM final, the FRET peptide diluted to 10 μM final from a 2 mM stock in 100% DMSO. The plate was then placed into the Cytofluor 4000 instrument which had been set to 340 nm excitation/490 nm emission, automatic mode for 21 cycles and the plate read in a kinetic mode. EC50 determinations were carried out as described for the IC50 determinations. […]
# The percentage inhibition was calculated using the formula below: […]
# The values were graphed and analyzed using XLFit to obtain the EC50 value.
compound,measurement,setting,value
C=C[C@@H]1C[C@]1(NC(=O)[C@@H]1C[C@@H](Oc2nccc3c(C(F)(F)F)cccc23)CN1C(=O)[C@@H](NC(=O)OC(C)(C)C)C(C)(C)C)C(=O)NS(=O)(=O)C1(CC)CC1 [Cpd 104],IC50,[1]; read-out: IC50,< 100 nM
same,EC50,[2],100 to 1000 nM
C=C[C@@H]1C[C@]1(NC(=O)[C@@H]1C[C@@H](Oc2nccc3c(Cl)c(OC)ccc23)CN1C(=O)[C@@H](NC(=O)OC(C)(C)C)C(C)(C)C)C(=O)NS(=O)(=O)C1(CC)CC1 [Cpd 105],IC50,[1]; read-out: IC50,< 100 nM
same,EC50,[2],< 100 nM
C=C[C@@H]1C[C@]1(NC(=O)[C@@H]1C[C@@H](Oc2nccc3c(OC)c(Cl)ccc23)CN1C(=O)[C@@H](NC(=O)OC(C)(C)C)C(C)(C)C)C(=O)NS(=O)(=O)C1(CC)CC1 [Cpd 106],IC50,[1]; read-out: IC50,< 100 nM
same,EC50,[2],< 100 nM
C=C[C@@H]1C[C@]1(NC(=O)[C@@H]1C[C@@H](Oc2ncc(Cl)c3cc(OC)ccc23)CN1C(=O)[C@@H](NC(=O)OC(C)(C)C)C(C)(C)C)C(=O)NS(=O)(=O)C1(CC)CC1 [Cpd 107],IC50,[1]; read-out: IC50,< 100 nM
same,EC50,[2],< 100 nM
C=C[C@@H]1C[C@]1(NC(=O)[C@@H]1C[C@@H](Oc2nccc3c4c(ccc23)OCCO4)CN1C(=O)[C@@H](NC(=O)OC(C)(C)C)C(C)(C)C)C(=O)NS(=O)(=O)C1(CC)CC1 [Cpd 108],IC50,[1]; read-out: IC50,< 100 nM
same,EC50,[2],< 100 nM
C=C[C@@H]1C[C@]1(NC(=O)[C@@H]1C[C@@H](Oc2nccc3cc(OC)c(F)cc23)CN1C(=O)[C@@H](NC(=O)OC(C)(C)C)C(C)(C)C)C(=O)NS(=O)(=O)C1(CC)CC1 [Cpd 109],IC50,[1]; read-out: IC50,< 100 nM
same,EC50,[2],< 100 nM
C=C[C@@H]1C[C@]1(NC(=O)[C@@H]1C[C@@H](Oc2cc3c(Cl)nccc3cc2OC)CN1C(=O)[C@@H](NC(=O)OC(C)(C)C)C(C)(C)C)C(=O)NS(=O)(=O)C1(CC)CC1 [Cpd 110],IC50,[1]; read-out: IC50,< 100 nM
same,EC50,[2],< 100 nM
C=C[C@@H]1C[C@]1(NC(=O)[C@@H]1C[C@@H](Oc2nccc3c(Cl)cccc23)CN1C(=O)[C@@H](NC(=O)OC(C)C)C(C)(C)C)C(=O)NS(=O)(=O)C1(CC)CC1 [Cpd 111],IC50,[1]; read-out: IC50,< 100 nM
same,EC50,[2],< 100 nM
C=C[C@@H]1C[C@]1(NC(=O)[C@@H]1C[C@@H](Oc2ncc(Cl)c3ccccc23)CN1C(=O)[C@@H](NC(=O)OC(C)C)C(C)(C)C)C(=O)NS(=O)(=O)C1(CC)CC1 [Cpd 112],IC50,[1]; read-out: IC50,< 100 nM
same,EC50,[2],100 to 1000 nM
C=C[C@@H]1C[C@]1(NC(=O)[C@@H]1C[C@@H](Oc2nc(Cl)cc3c(OC)cccc23)CN1C(=O)[C@@H](NC(=O)OC(C)(C)C)C(C)(C)C)C(=O)NS(=O)(=O)C1(CC)CC1 [Cpd 113],IC50,[1],< 100 nM
same,EC50,[2],100 to 1000 nM
